Assay results reported in patent US20260274892A1, “MACROCYCLIC BROAD SPECTRUM ANTIBIOTICS” (RQx Pharmaceuticals, Inc., priority 2017, published 2026).

Tests used:
[1] = tested on: Methicillin Resistant Staphylococcus aureus strain USA 200; assay: Minimum inhibitory concentration (MIC), CLSI broth micro-dilution, S. aureus; assay type: cell-based; details: Staphylococcus aureus, MRSA / USA200; Table 6; MRSA USA 200; cation adjusted Mueller Hinton Broth + 0.002% Tween-80; 35° C., 22 hours
Summary of the method: (§1)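 Colonies grown 20 h at 35° C on Trypticase Soy agar (MRSA) or Luria agar (E. coli) were suspended in cation-adjusted Mueller Hinton broth with 0.002% Tween-80. Suspensions were added at OD600 0.0005 to 10-point twofold compound dilutions, then incubated 22 h at 35° C.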

[2] = tested on: Escherichia coli ATCC 25922; assay: Minimum inhibitory concentration (MIC), CLSI broth micro-dilution, E. coli; assay type: cell-based; details: Escherichia coli, ATCC25922, 22 h, Table 6, cation adjusted Mueller Hinton Broth + 0.002% Tween-80, 35° C.
Summary of the method: as §1

`Cc1cc(-c2ccc(S(F)(F)(F)(F)F)cc2)ccc1C(=O)N[C@@H](CCN)C(=O)N(C)[C@@H]1C(=O)N[C@@H](C)C(=O)N[C@H](C(=O)NCC#N)Cc2ccc(OCCN)c(c2)-c2cc1ccc2OCCN` (racemic) [Compound 202, rac-(8S,11S,14S)-3,18-bis(2-aminoethoxy)-N-(cyanomethyl)-11-methyl-14-[methyl-[rac-(2S)-4-amino-2-[[2-methyl-4-[4-(pentafluoro-lambda6-sulfanyl)phenyl]benzoyl]amino]butanoyl]amino]-10,13-dioxo-9,12-diazatricyclo[13.3.1.12,6]icosa-1(18),2(20),3,5,15(19),16-hexaene-8-carboxamide] showed an MIC [1] of 0.023 µM and an MIC [2] of 0.37 µM.
Work on `CCCCc1ccc(Oc2nc(C)c(C(=O)N[C@@H](CCN)C(=O)N(C)[C@@H]3C(=O)N[C@@H](C)C(=O)N[C@H](C(=O)NCC#N)Cc4ccc(OCCN)c(c4)-c4cc3ccc4OCCN)c(C)n2)cc1CCCC` (racemic) [Compound 355, rac-(8S,11S,14S)-3,18-bis(2-aminoethoxy)-N-(cyanomethyl)-11-methyl-14-[methyl-[rac-(2S)-4-amino-2-[[2-(3,4-dibutylphenoxy)-4,6-dimethyl-pyrimidine-5-carbonyl]amino]butanoyl]amino]-10,13-dioxo-9,12-diazatricyclo[13.3.1.12,6]icosa-1(18),2(20),3,5,15(19),16-hexaene-8-carboxamide] yielded an MIC [1] of 0.094 µM and an MIC [2] of 4 µM.
With `Cc1nc(-c2ccc(S(F)(F)(F)(F)F)cc2)ncc1C(=O)N[C@@H](CCN)C(=O)N(C)[C@@H]1C(=O)N[C@@H](C)C(=O)N[C@H](C(=O)NCC#N)Cc2ccc(OCCN)c(c2)-c2cc1ccc2OCCN` (racemic) [Compound 225, rac-(8S,11S,14S)-3,18-bis(2-aminoethoxy)-N-(cyanomethyl)-11-methyl-14-[methyl-[rac-(2S)-4-amino-2-[[4-methyl-2-[4-(pentafluoro-lambda6-sulfanyl)phenyl]pyrimidine-5-carbonyl]amino]butanoyl]amino]-10,13-dioxo-9,12-diazatricyclo[13.3.1.12,6]icosa-1(18),2(20),3,5,15(19),16-hexaene-8-carboxamide] the MIC [1] was 0.016 µM and the MIC [2] was 0.19 µM.
Compound `Cc1nc(-c2ccc(OC(C)C)cc2)ncc1C(=O)N[C@@H](CCN)C(=O)N(C)[C@@H]1C(=O)N[C@@H](C)C(=O)N[C@H](C(=O)NCC#N)Cc2ccc(OCCN)c(c2)-c2cc1ccc2OCCN` (racemic) [Compound 246, rac-(8S,11S,14S)-3,18-bis(2-aminoethoxy)-N-(cyanomethyl)-11-methyl-14-[methyl-[rac-(2S)-4-amino-2-[[2-(4-isopropoxyphenyl)-4-methyl-pyrimidine-5-carbonyl]amino]butanoyl]amino]-10,13-dioxo-9,12-diazatricyclo[13.3.1.12,6]icosa-1(18),2(20),3,5,15(19),16-hexaene-8-carboxamide] has an MIC [1] of 0.067 µM and an MIC [2] of 0.4 µM.
Work on `C[C@@H]1NC(=O)[C@@H](N(C)C(=O)[C@H](CCN)NC(=O)c2cnc(-c3ccc(C(C)(C)C)cc3)nc2N(C)C)c2ccc(OCCN)c(c2)-c2cc(ccc2OCCN)C[C@@H](C(=O)NCC#N)NC1=O` [Compound 490] yielded an MIC [1] of 0.023 µM and an MIC [2] of 1 µM.
In the case of `Cc1cc(-c2ccc(CC(C)C)cc2)ncc1C(=O)N[C@@H](CCN)C(=O)N(C)[C@@H]1C(=O)N[C@@H](C)C(=O)N[C@H](C(=O)NCC#N)Cc2ccc(O)c(c2)-c2cc1ccc2OCCN` (racemic) [Compound 525, rac-(8S,11S,14S)-18-(2-aminoethoxy)-N-(cyanomethyl)-3-hydroxy-11-methyl-14-[methyl-[rac-(2S)-4-amino-2-[[6-(4-isobutylphenyl)-4-methyl-pyridine-3-carbonyl]amino]butanoyl]amino]-10,13-dioxo-9,12-diazatricyclo[13.3.1.12,6]icosa-1(18),2(20),3,5,15(19),16-hexaene-8-carboxamide], the MIC [1] is reported as 0.053 µM and the MIC [2] is reported as 0.56 µM.
Compound `Cc1nc(-c2ccc3c(c2)CCOC3(C)C)nc(C)c1C(=O)N[C@@H](CCN)C(=O)N(C)[C@@H]1C(=O)N[C@@H](C)C(=O)N[C@H](C(=O)NCC#N)Cc2ccc(OCCN)c(c2)-c2cc1ccc2OCCN` (racemic) [Compound 290, rac-(8S,11S,14S)-3,18-bis(2-aminoethoxy)-N-(cyanomethyl)-11-methyl-14-[methyl-[rac-(2S)-4-amino-2-[[2-(1,1-dimethylisochroman-6-yl)-4,6-dimethyl-pyrimidine-5-carbonyl]amino]butanoyl]amino]-10,13-dioxo-9,12-diazatricyclo[13.3.1.12,6]icosa-1(18),2(20),3,5,15(19),16-hexaene-8-carboxamide] has an MIC [1] of 0.19 µM and an MIC [2] of 0.75 µM.
Compound `CCCCc1ccc(-c2cc(C)c(C(=O)N[C@@H](CCN)C(=O)N(C)[C@@H]3C(=O)N[C@@H](C)C(=O)N[C@H](C(=O)NCC#N)Cc4ccc(OCCN)c(c4)-c4cc3ccc4OCCN)c(C)n2)cc1` (racemic) [Compound 366, rac-(8S,11S,14S)-3,18-bis(2-aminoethoxy)-N-(cyanomethyl)-11-methyl-14-[methyl-[rac-(2S)-4-amino-2-[[6-(4-butylphenyl)-2,4-dimethyl-pyridine-3-carbonyl]amino]butanoyl]amino]-10,13-dioxo-9,12-diazatricyclo[13.3.1.12,6]icosa-1(18),2(20),3,5,15(19),16-hexaene-8-carboxamide] has an MIC [1] of 0.016 µM and an MIC [2] of 0.13 µM.
`Cc1nc(-c2ccc(OC3CCCCCC3)cc2)nc(C)c1C(=O)N[C@@H](CCN)C(=O)N(C)[C@@H]1C(=O)N[C@@H](C)C(=O)N[C@H](C(=O)NCC#N)Cc2ccc(OCCN)c(c2)-c2cc1ccc2OCCN` (racemic) [Compound 340, rac-(8S,11S,14S)-3,18-bis(2-aminoethoxy)-N-(cyanomethyl)-11-methyl-14-[methyl-[rac-(2S)-4-amino-2-[[2-[4-(cycloheptoxy)phenyl]-4,6-dimethyl-pyrimidine-5-carbonyl]amino]butanoyl]amino]-10,13-dioxo-9,12-diazatricyclo[13.3.1.12,6]icosa-1(18),2(20),3,5,15(19),16-hexaene-8-carboxamide] was tested, and the MIC [1] was 0.023 µM and the MIC [2] was 0.063 µM.
`Cc1nc(-c2ccc(C3CCCC3)cc2)ncc1C(=O)N[C@@H](CCN)C(=O)N(C)[C@@H]1C(=O)N[C@@H](C)C(=O)N[C@H](C(=O)NCC#N)Cc2ccc(OCCN)c(c2)-c2cc1ccc2OCCN` (racemic) [Compound 230, rac-(8S,11S,14S)-3,18-bis(2-aminoethoxy)-N-(cyanomethyl)-11-methyl-14-[methyl-[rac-(2S)-4-amino-2-[[2-(4-cyclopentylphenyl)-4-methyl-pyrimidine-5-carbonyl]amino]butanoyl]amino]-10,13-dioxo-9,12-diazatricyclo[13.3.1.12,6]icosa-1(18),2(20),3,5,15(19),16-hexaene-8-carboxamide] gave an MIC [1] of 0.012 µM and an MIC [2] of 0.066 µM.
With `Cc1nc(-c2ccc(OCCC(C)C)cc2)nc(C)c1C(=O)N[C@@H](CCN)C(=O)N(C)[C@@H]1C(=O)N[C@@H](C)C(=O)N[C@H](C(=O)NCC#N)Cc2ccc(OCCN)c(c2)-c2cc1ccc2OCCN` (racemic) [Compound 329, rac-(8S,11S,14S)-3,18-bis(2-aminoethoxy)-N-(cyanomethyl)-11-methyl-14-[methyl-[rac-(2S)-4-amino-2-[[2-(4-isopentyloxyphenyl)-4,6-dimethyl-pyrimidine-5-carbonyl]amino]butanoyl]amino]-10,13-dioxo-9,12-diazatricyclo[13.3.1.12,6]icosa-1(18),2(20),3,5,15(19),16-hexaene-8-carboxamide] the MIC [1] was 0.011 µM and the MIC [2] was 0.11 µM.
`C[C@@H]1NC(=O)[C@@H](N(C)C(=O)[C@H](CCN)NC(=O)c2ccc(-c3ccc(C(C)(C)C)cc3)cc2Cl)c2ccc(OCCN)c(c2)-c2cc(ccc2OCCN)C[C@@H](C(=O)NCC#N)NC1=O` (racemic) [Compound 371, rac-(8S,11S,14S)-3,18-bis(2-aminoethoxy)-N-(cyanomethyl)-11-methyl-14-[methyl-[rac-(2S)-4-amino-2-[[4-(4-tert-butylphenyl)-2-chloro-benzoyl]amino]butanoyl]amino]-10,13-dioxo-9,12-diazatricyclo[13.3.1.12,6]icosa-1(18),2(20),3,5,15(19),16-hexaene-8-carboxamide] gave an MIC [1] of 0.031 µM and an MIC [2] of 0.19 µM.
`CCCCCCc1ccc2nc(C)c(C(=O)N[C@@H](CCN)C(=O)N(C)[C@@H]3C(=O)N[C@@H](C)C(=O)N[C@H](C(=O)NCC#N)Cc4ccc(OCCN)c(c4)-c4cc3ccc4OCCN)c(C)c2c1` (racemic) [Compound 399, rac-(8S,11S,14S)-3,18-bis(2-aminoethoxy)-N-(cyanomethyl)-11-methyl-14-[methyl-[rac-(2S)-4-amino-2-[(6-hexyl-2,4-dimethyl-quinoline-3-carbonyl)amino]butanoyl]amino]-10,13-dioxo-9,12-diazatricyclo[13.3.1.12,6]icosa-1(18),2(20),3,5,15(19),16-hexaene-8-carboxamide] gave an MIC [1] of 0.0078 µM and an MIC [2] of 0.5 µM.
`Cc1nc(-c2ccc(C(C)(C)C)cc2)nc(N(C)C)c1C(=O)N[C@@H](CCN)C(=O)N(C)[C@@H]1C(=O)N[C@@H](C)C(=O)N[C@H](C(=O)NCC#N)Cc2ccc(OCCN)c(c2)-c2cc1ccc2OCCN` (racemic) [Compound 424, rac-(8S,11S,14S)-3,18-bis(2-aminoethoxy)-N-(cyanomethyl)-11-methyl-14-[methyl-[rac-(2S)-4-amino-2-[[2-(4-tert-butylphenyl)-4-(dimethylamino)-6-methyl-pyrimidine-5-carbonyl]amino]butanoyl]amino]-10,13-dioxo-9,12-diazatricyclo[13.3.1.12,6]icosa-1(18),2(20),3,5,15(19),16-hexaene-8-carboxamide] showed an MIC [1] of 0.023 µM and an MIC [2] of 0.19 µM.
